The values below come from ChEMBL document CHEMBL4699665, “Discovery of ANT3310, a Novel Broad-Spectrum Serine β-Lactamase Inhibitor of the Diazabicyclooctane Class, Which Strongly Potentiates Meropenem Activity against Carbapenem-Resistant Enterobacterales and Acinetobacter baumannii” (J Med Chem, 2020).

As a reminder, the MIC is the smallest concentration in the dilution series that meets the test's criterion for growth inhibition. For orientation: AUC means concentration integrated over time. Low readings indicate less exposure, high ones more exposure. A word on the IC50: it is the point on the concentration scale where inhibition reaches its midpoint. As usually defined, the fraction unbound is free concentration divided by total concentration. By half-life is commonly meant the time needed for the level to fall by half in the phase considered. A high value points to slow loss. One may read the CC50 as the concentration that lowers cell viability or growth by half. Low readings indicate greater toxicity to the cells, high ones lower toxicity to the cells.

Data set [1] concerns Klebsiella pneumoniae. Kind of data set: Potentiation of meropenem-induced antibacterial activity against Klebsiella pneumoniae expressing TEM-OSBL/CTX-M-14/OXA-48 assessed as meropenem MIC at 4 ug/ml by broth microdilution method (reference value: 16 ug/ml). Format: functional. The following applies: dose 4 µg/ml.
Data set [2] can be described thus: AUC in rat at 1 mg/kg, iv. Format: ADME, organism-based. Also noted: dose 1 mg/kg. The following applies: in vivo.
The subject of data set [3] is Enterobacter. Briefly: Inhibition of beta lactamase KPC in carbapenem-resistant Enterobacter assessed as meropenem-induced antibacterial activity by measuring meropenem MIC90 at 4 ug/ml by broth microdilution method (Rvb >32 ug/ml). As to conditions: dose 4.0 µg/ml. In general terms: Broth dilution looks for growth in wells or tubes with falling amounts of substance.

Data set [4] is described as follows: Inhibition of beta lactamase CTXM-15 in Enterobacter cloacae assessed as decrease in enzyme activity using nitrocefin as substrate preincubated for 10 mins followed by substrate addition measured for 10 mins by fluorescence plate reader analysis.
Data set [5] is described as follows: Plasma protein binding in rat assessed as fraction unbound by LC-MS/MS analysis. It counts as ADME, cell-free.
Data set [6] has as its system Klebsiella pneumoniae. Kind of data set: Potentiation of meropenem-induced antibacterial activity against Klebsiella pneumoniae expressing SHV-11/OXA-121 assessed as meropenem MIC at 4 ug/ml by broth microdilution method (reference value: 16 ug/ml). Format: functional. As to conditions: dose 4 µg/ml.
The nature of data set [7]: Toxicity in iv dosed rat administered as single dose. It counts as organism-based. The following applies: in vivo.
In data set [8] the test system is Enterobacter. Kind of data set: Inhibition of beta lactamase KPC in carbapenem-resistant Enterobacter assessed as meropenem-induced antibacterial activity by measuring meropenem MIC50 at 4 ug/ml by broth microdilution method (Rvb >32 ug/ml). As to conditions: dose 4.0 µg/ml.
A short description of data set [9]: Half life in rat at 1 mg/kg, iv. Format: ADME, organism-based. The following applies: in vivo.
The nature of data set [10]: Cytotoxicity against human HepG2 cells. It counts as cell-based.
Another data set relates to Enterobacter cloacae. Kind of data set: Potentiation of meropenem-induced antibacterial activity against Enterobacter cloacae expressing TEM-1/KPC-2 assessed as meropenem MIC at 4 ug/ml by broth microdilution method (reference value: 8 ug/ml). It counts as functional. The following applies: dose 4 µg/ml.
In data set [11] the test system is Enterobacter. Kind of data set: Inhibition of beta lactamase OXA in carbapenem-resistant Enterobacter assessed as meropenem maximum concentration required for antibacterial activity at 4 ug/ml by broth microdilution method (Rvb > 32 ug/ml). As to conditions: dose 4.0 µg/ml.
The nature of data set [12]: Inhibition of beta lactamase OXA-48 in Enterobacter cloacae assessed as decrease in enzyme activity using nitrocefin as substrate preincubated for 10 mins followed by substrate addition measured for 10 mins by fluorescence plate reader analysis.
The subject of data set [13] is Enterobacter. Kind of data set: Inhibition of beta lactamase OXA in carbapenem-resistant Enterobacter assessed as meropenem-induced antibacterial activity by measuring meropenem MIC50 at 4 ug/ml by broth microdilution method (reference value: 16 ug/ml). The following applies: dose 4.0 µg/ml.
The target of the next data set is Cytochrome P450 2C19 (Homo sapiens, UniProt P33261). Kind of data set: Inhibition of CYP2C19 in human liver microsomes in presence of NADPH by LC-MS/MS analysis. It counts as ADME. In general terms: Liver microsomes are a subcellular fraction often used to study metabolism.
Chain of Cytochrome P450 2C19 (P33261 whole entry): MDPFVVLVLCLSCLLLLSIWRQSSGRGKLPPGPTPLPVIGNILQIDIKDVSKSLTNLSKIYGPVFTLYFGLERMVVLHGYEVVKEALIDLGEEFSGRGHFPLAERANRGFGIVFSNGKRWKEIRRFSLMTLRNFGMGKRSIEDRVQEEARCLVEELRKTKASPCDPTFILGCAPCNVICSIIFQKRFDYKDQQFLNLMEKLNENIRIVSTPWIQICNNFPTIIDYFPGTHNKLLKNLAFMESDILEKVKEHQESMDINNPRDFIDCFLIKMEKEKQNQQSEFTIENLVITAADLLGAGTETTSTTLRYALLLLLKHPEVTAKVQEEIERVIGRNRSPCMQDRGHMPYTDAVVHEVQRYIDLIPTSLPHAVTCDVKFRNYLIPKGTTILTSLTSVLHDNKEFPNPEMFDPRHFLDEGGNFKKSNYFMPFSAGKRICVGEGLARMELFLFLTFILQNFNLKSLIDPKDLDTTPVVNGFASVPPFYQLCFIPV
Data set [14] is described as follows: Inhibition of beta lactamase AmpC in Enterobacter cloacae assessed as decrease in enzyme activity using nitrocefin as substrate preincubated for 10 mins followed by substrate addition measured for 10 mins by fluorescence plate reader analysis.
The subject of data set [15] is Klebsiella pneumoniae. Kind of data set: Antibacterial activity against Klebsiella pneumoniae expressing SHV-11/OXA-181 by broth microdilution method. It counts as functional.
Data set [16] in a line: Inhibition of beta lactamase TEM-1 in Enterobacter cloacae assessed as decrease in enzyme activity using nitrocefin as substrate preincubated for 10 mins followed by substrate addition measured for 10 mins by fluorescence plate reader analysis.

Consider `O=C1N2C[C@@H](CC[C@H]2F)N1OS(=O)(=O)[O-].[Na+]`, for which the MIC was 0.25 µg/mL in the data set on Klebsiella pneumoniae [1], 1 µg/mL with Klebsiella pneumoniae [6], 0.03 µg/mL in the data set on Enterobacter cloacae and 128 µg/mL against Klebsiella pneumoniae [15]. Moreover, the area under the curve (AUC) in [2] amounted to 412 ng·h/mL. Moreover, the MIC90 with Enterobacter [3] was 1 µg/mL. The IC50 in [4] was 2 nM; in data set [12], 175 nM; at Cytochrome P450 2C19 it was more than 50 µM; in data set [14] it was 10 nM; in [16], 1 nM. In addition, the free fraction (fraction unbound) in data set [5] was more than 0.93. For the same compound, the MTD in [7] is not below 1000 mg/kg. Besides, the results for the MIC50 in the data set with Enterobacter [8] and in the data set on Enterobacter [13] were 0.06 µg/mL and 0.12 µg/mL, respectively. The compound further had a half-life in data set [9] of 38.4 min. Also, the cytotoxic concentration (CC50) in data set [10] is more than 100 µM. In the data set with Enterobacter [11], the Activity turned out to be 2 µg/mL.
